In patent US11679984B2, “Composite sols” (Prebona AB, priority 2016, dated 2023):

System: fungal growth
Experiment: Biocidal function: fungal growth on brushed bread slices
Format: cell-based, fungi
Conditions: French bread slices brushed on all sides, 14 days, dark, 18-20° C.
Text: In this example the following solutions/materials were used: • 1. Deionized water • 2. Solution CuCl2.2H2O in deionized water, 571 ppm Cu • 3. Solution CuCl2.2H2O in deionized water, 1286 ppm Cu • 4. Cu containing sol of example 5 in Table 7a, 571 ppm Cu • 5. Cu containing sol of example 6 in Table 7a, 1286 ppm Cu
Slices of French bread from a local baker were used as substrates for fungal growth. The bread slices were as brushed on all sides with solutions 1-5. The bread slices on dinner plates were put in plastic bags (one slice on a plate to a bag), which were in a dark, closed room where the temperature varied between 18 and 20° C. over the day. After 14 days, the untreated bread slice was severely befouled and the slice seemed to be completely invaded by fungi.

Row | Compound | Fungal growth on treated bread slice
1 | O.O.[Cl-].[Cl-].[Cu+2] [Cu solution containing 1286 ppm Cu, CuCl2.2H2O] | Only little fungal growth

System: not given
Experiment: not given
Conditions: 20° C.; cited from earlier work

Row | Compound | Aqueous solubility
2 | Cd(OH)2 | 18 µM
3 | Cu(OH)2 | 0.17 µM
4 | Fe(OH)2 | 5.8 µM
5 | Fe(OH)3 | 0.0002 µM
6 | Gd(OH)3 | 0.52 µM
7 | Pb(OH)2 | 6.7 µM
